Assay results reported in patent publication US8030547B2, “Gene coding for acetolactate synthase” (priority 2002, dated 2011).

Experiments:
[1] = target: T1, GST fusion W548L mutant ALS protein (Oryza sativa subsp. japonica, UniProt Q6K2E8, W548L); assay: Herbicide sensitivity of ALS protein expressed in E. coli (crude enzyme solution), W548L; type: biochemical, rice (Oryza sativa var. Kinmaze); conditions: for RS ratio: W548L mutant vs wild type
T1 construct: an expression vector having the full-length wild type ALS cDNA incorporated into the Eco RI site of pGEX-2T; made in house; host or cells: E. coli JM109, pGEX 2T(ALS-W548L mutant); crude supernatant
T1 sequence (Q6K2E8 44-644 W548L): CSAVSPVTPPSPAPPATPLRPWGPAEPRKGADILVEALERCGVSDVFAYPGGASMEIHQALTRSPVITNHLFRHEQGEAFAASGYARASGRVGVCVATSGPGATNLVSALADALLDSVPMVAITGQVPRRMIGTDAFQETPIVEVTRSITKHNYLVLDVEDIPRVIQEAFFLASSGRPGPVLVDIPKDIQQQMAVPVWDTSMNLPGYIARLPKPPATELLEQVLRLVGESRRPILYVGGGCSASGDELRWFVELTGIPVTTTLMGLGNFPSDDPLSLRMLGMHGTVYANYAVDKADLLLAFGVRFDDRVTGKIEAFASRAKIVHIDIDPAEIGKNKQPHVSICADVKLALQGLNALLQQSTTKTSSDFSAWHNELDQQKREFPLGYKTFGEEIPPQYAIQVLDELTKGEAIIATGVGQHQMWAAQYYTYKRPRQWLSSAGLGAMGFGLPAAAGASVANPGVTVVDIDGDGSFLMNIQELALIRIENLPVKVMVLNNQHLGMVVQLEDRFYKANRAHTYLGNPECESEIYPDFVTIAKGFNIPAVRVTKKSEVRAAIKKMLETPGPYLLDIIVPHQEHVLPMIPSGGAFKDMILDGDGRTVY
Method: (§1) ALS activity resulting from the mutant ALS protein contained in the eluted fractions apportioned into each test tube for apportioning was measured as follows. A reaction solution to be used in a measurement reaction was prepared by mixing an eluted fraction to be measured with a solution comprising 20 mM sodium pyruvate, 0.5 mM TPP, 0.5 mM MgCl2, 10 μM FAD and 20 mM potassium phosphate buffer (pH 7.5). One ml of this reaction solution was used. After the eluted fraction to be measured was added, the measurement reaction was performed at 30° C. for 40 to 60 minutes. Then, the reaction was stopped by addition of 0.1 ml of 6N sulfuric acid (or 0.25 N sodium hydroxide).
(§2) After the reaction was stopped, the reaction solution was incubated at 60° C. for 10 minutes, thereby converting acetolactate contained in the reaction solution to acetoin.
(§3) Then, to quantify acetoin contained in the reaction solution, 1 ml of 0.5% (w/v) creatine and 1 ml of 5% (w/v) α-naphthol dissolved in 2.5 N sodium hydroxide was added to the reaction solution, followed by incubation at 37° C. for 10 minutes. Acetoin was then quantified by color comparison of the absorbance (at 525 nm) of the reaction solution, thereby evaluating ALS activity. In addition, since the reaction solution contained a small amount of sodium pyruvate, reaction time 0 was used as control.
E. coli transformed with pGEX-2T(ALS-wild) constructed in Example 3(5), E. coli transformed with pGEX-2T(ALS-W548L mutant) constructed in Example 5, E. coli transformed with pGEX-2T(ALS-S627I mutant) constructed in Example 5, E. coli transformed with pGEX-2T(ALS P171H mutant) constructed in Example 6, E. coli transformed with pGEX-2T(ALS R172S mutant) constructed in Example 6, E. coli transformed with pGEX-2T(ALS P171H, R172S mutant) constructed in Example 7, E. coli transformed with pGEX-2T(ALS-P171H, W548L mutant) constructed in Example 8, E. coli transformed with pGEX-2T(ALS-P171H, S627I mutant) constructed in Example 8, and E. coli transformed with pGEX-2T(ALS-P171H, W548L, S627I mutant) constructed in Example 9 were respectively shake-cultured (pre-culture) at 27° C. in 2 ml of LB liquid medium containing ampicillin. These types of E. coli were respectively cultured in 250 ml of LB liquid medium containing ampicillin using 1 ml of the pre-culture solution. After culturing overnight, 1 mM IPTG was added to the media, and then culturing was performed for a further 3 to 4 hours, so that the expression of GST fusion protein was induced. In addition, the cells were stored at −80° C. after washing.
Preparation and purification of ALS from E. coli were performed by the following method. First, the pellet of the transformant E. coli stored at −80° C. was suspended in ALS extraction buffer (potassium phosphate buffer (pH 7.5) containing 30% glycerol and 0.5 mM MgCl2). Specifically, 2.5 ml of the buffer was added to the pellet obtained from 50 ml of the culture solution. The suspension was subjected to ultrasonication (Heat Systems-Ultrasonics, Sonicator W-225R, micro chip, output control 8, interval of approximately 1 second, twice (40 seconds each)), and subjected to centrifugation at 15000×g, 4° C. for 20 minutes, thereby obtaining the supernatant as a crude enzyme solution.
Herbicide sensitivity of the wild type ALS protein and that of mutant ALS protein were examined using the 9 types of crude enzyme solutions obtained in Example 10. Herbicide sensitivity test was performed according to procedures almost the same as those in Example 2. However, in this example, reaction temperature was 37° C., reaction time was 30 minutes, and 10 mM valine was added to the reaction solution to inhibit ALS activity derived from E. coli. Further, three types of herbicides, bispyribac-sodium, pyrithiobac-sodium, and pyriminobac, were used as PC herbicides; chlorsulfuron was used as a sulfonylurea herbicide; and imazaquin was used as an imidazolinon herbicide. […]

[2] = system: mutant ALS protein of Vg line; assay: Herbicide sensitivity of partially purified ALS protein (ALS activity inhibition), Vg line; type: biochemical, Oryza sativa var. Kinmaze; conditions: I50 of the resistant mutant divided by I50 of the wild type
Method: (§4) First, 200 g or more of resistant mutant was prepared by a liquid culture method (no supplementation with bispyribac-sodium), using a composition as shown in Table 3 excluding Gelrite. Then, about 150 g of the resistant mutant was homogenized using Hiscotron in a volume of buffer-1 [100 mM potassium phosphate buffer (pH 7.5) containing 20% (v/v) glycerol, […] thiamin pyrophosphate (TPP), 10 μM flavin adenine dinucleotide (FAD), 0.5 mM MgCl2, and a volume of polyvinyl polypyrrolidone one-tenth that of tissue volume] 3-fold greater than tissue volume. The homogenate was filtered through nylon gauze, and then centrifuged at 15000×g for 20 minutes. Ammonium sulfate was added to the centrifuged supernatant to 50% saturation, and then allowed to stand in ice for approximately 1 hour. The mixture was again centrifuged at 15000×g for 20 minutes, and then the precipitated fraction was dissolved in approximately 30 ml of buffer-2 [10 mM Tris hydrochloric acid buffer (pH 7.5) containing 20% (v/v) glycerol, 0.5 mM TPP and 0.5 mM MgCl2]. The mixture was again centrifuged at 15000×g for 20 minutes, and then the supernatant fraction was applied to a Sephadex G-25 (Amersham Bioscience). About 40 ml of the fraction that had passed through the column was collected as a crude enzyme solution.
(§5) Next, the protein concentration of the crude enzyme solution was measured by the Bradford method according to the manual of Bio-Rad Protein Assay. The crude enzyme solution was then filtered through a Whatman filter (Whatman), and then the crude enzyme solution in an appropriate protein amount (10 to 15 ml) was applied to three vertically-connected HiTrap Q columns (Amersham Bioscience) using a FPLC device (Amersham Bioscience). After protein component was adsorbed using HiTrap Q, unadsorbed fractions were washed out using buffer-2 having a volume 3 to 5 fold greater than the bed volume. Then, the adsorbed protein component was eluted using an eluate having a volume 10 fold greater than the bed volume (150 ml). Here, the eluate was prepared by dissolving KCl with a linear concentration gradient (0 to 0.4 M) into buffer-2. The eluate containing the eluted protein component was apportioned, 5 ml each, into a plurality of test tubes for apportioning. Further, to stabilize ALS protein contained in the eluted protein component, 0.5 ml of buffer-2 containing 20 mM sodium pyruvate had been previously added to each test tube for apportioning.
as §1, §2, §3
(§6) Using the enzyme solution containing the mutant ALS protein, sensitivity of the mutant ALS protein to bispyribac-sodium, chlorsulfuron and imazaquin was examined. […]

[3] = target: T2, mutant ALS protein of Vg line (Oryza sativa subsp. japonica, UniProt Q6K2E8); assay: as above; type: biochemical, Oryza sativa var. Kinmaze; conditions: read-out: I50 (nM) Vg; partially purified ALS, 30° C., probit analysis
T2 construct: other: partially purified ALS, 30° C., probit analysis
T2 sequence (Q6K2E8 whole entry W548L, form open): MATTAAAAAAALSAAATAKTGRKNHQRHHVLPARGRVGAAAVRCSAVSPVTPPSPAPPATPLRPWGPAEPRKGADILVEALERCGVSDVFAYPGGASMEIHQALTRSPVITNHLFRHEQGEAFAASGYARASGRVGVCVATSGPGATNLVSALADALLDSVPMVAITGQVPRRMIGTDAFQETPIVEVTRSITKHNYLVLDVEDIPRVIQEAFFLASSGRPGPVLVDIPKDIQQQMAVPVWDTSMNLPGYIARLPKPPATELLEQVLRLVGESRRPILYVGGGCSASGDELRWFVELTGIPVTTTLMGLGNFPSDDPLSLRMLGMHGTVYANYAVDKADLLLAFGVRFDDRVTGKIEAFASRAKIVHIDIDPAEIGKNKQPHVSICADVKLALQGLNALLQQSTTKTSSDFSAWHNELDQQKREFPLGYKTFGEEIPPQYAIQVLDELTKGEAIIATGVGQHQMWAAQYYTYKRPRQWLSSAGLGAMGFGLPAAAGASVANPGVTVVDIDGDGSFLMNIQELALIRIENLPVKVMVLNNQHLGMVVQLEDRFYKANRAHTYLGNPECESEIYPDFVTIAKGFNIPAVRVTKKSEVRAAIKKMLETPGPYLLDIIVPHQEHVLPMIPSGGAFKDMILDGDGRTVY
Method: as §4, §5, §1, §2, §3, §6

Structure (SMILES)	RS ratio [1]	inhibition at 100 µM ([1]; read-out: inhibition % at the highest concentration among the concentrations tested, W548L mutant, in 100 μM) [%]	RS ratio Vg [2]	IC50 [3] [nM]	IC50 [1] [µM]
CC(C)C1(C)N=C(c2nc3ccccc3cc2C(=O)O)NC1=O (stereo not drawn) [imazaquin]	>45	14	29.8	44100	
COc1cc(OC)nc(Oc2cccc(Oc3nc(OC)cc(OC)n3)c2C(=O)O)n1 [bispyribac-sodium]	520		17.3	97.2	3.3
COc1nc(C)nc(NC(=O)NS(=O)(=O)c2ccccc2Cl)n1 [chlorsulfuron]	760		28.6	495	9.9
